One series has as its system Human Coronavirus OC43. Put plainly: inhibition of HCoV OC43 infection in H292 cells (CPE/cell viability assay). It counts as cell-based, Human Coronavirus OC43 (Beta). The following applies: for efficacy against HCoV OC43: H292 cells. The procedure:
(§1) A dilution series of each test compound (8-point, 10-fold dose titration) was added prophylactically for one hour, to cells. Cells were infected with virus for one hour, at a single concentration (100×TCID50 (Median Tissue Culture Infectious Dose). Additional media was added to the wells, with equivalent concentrations of compound added in for the duration of the study. Vehicle and positive control wells were set up to control for any influence of the compounds alone on cell viability. Cells were visually inspected for the appearance of any cytopathic effects (CPE). A cell viability assay was performed once CPE was complete.
(§2) Inhibition was calculated as follows: […]
(§3) where: • A: mean optical density of test, • B: mean optical density of virus controls, • C: mean optical density of cell controls. • Negative values occur when A<B, due either to natural variation or compound toxicity.
(§4) • EC50: The concentration which results in 50% viral inhibition, following the addition of compounds. • CC50: The concentration which results in 50% cell viability, following the addition of compounds.
(§5) • 1. Cells permissible to infection, indicated in the Conditions Table, were grown and seeded into 96-well plates to a confluency of 80-90%. • 2. The test compounds were serially diluted 10-fold into 8 concentrations in total. The serial dilution was added to the cells for 1 hour prior to infection with each virus. Positive control compounds were included using the same treatment regimen. • 3. After pre-treatment, each virus was added to the cells for 1 h at 100×TCID50. A mock infection of blank media was added to the uninfected controls. • 4. After infection, the virus/media was removed and an overlay medium was added, with equivalent concentrations of the test compounds added in. • 5. […] A cell viability assay was performed on all conditions, with cells receiving the test treatment compared to the vehicle treated and uninfected controls.

Series [1] in a line: cytotoxicity (cell viability) in 16HBE cells. It counts as cell-based. The following applies: human, read-out: CC50 (50% cell viability). The procedure: as §1, §4, §5
Another series has as its system 16HBE cells. The experiment in a line: cytotoxicity (cell viability) in 16HBE cells. The following applies: 5 days. It counts as cell-based. The procedure:
as §1, §4, §5

Series [2] in a line: cytotoxicity (cell viability) in H292 cells. In kind it is cell-based. The following applies: human, read-out: CC50 (50% cell viability). On the procedure:
as §1, §4, §5

The test system of another series is H292 cells. The experiment in a line: cytotoxicity (cell viability) in H292 cells. It counts as cell-based. Conditions: 5 days. On the procedure: as §1, §4, §5
For a further series, the system named is Human Coronavirus 229E. Put plainly: inhibition of HCoV 229E infection in 16HBE cells (CPE/cell viability assay). It counts as cell-based, Human Coronavirus 229E (Alpha). On the procedure:
as §1, §2, §3, §4
• 1. Cells permissible to infection, indicated in the Conditions Table, were grown and seeded into 96-well plates to a confluency of 80-90%. • 2. The test compounds were serially diluted 10-fold into 8 concentrations in total. […]

The conditions of series [3]: 5 mg/kg i.p., rodents; cited from earlier work.
Another series deals with HIV. The following applies: cited from earlier work.
A further series has as its system uninfected H9 cells. The following applies: cited from earlier work.

The text below walks through data of patent US20240261253A1, “DAUR[…] AND IT'S USE IN MEDICINE” (Phytotherapeutix Ltd., priority 2021, published 2024).

In brackets after ≈: the same amount, converted by molar mass. Read-outs that look alike come from different tables or passages of the source.

Consider `CC(C)=CCC/C(C)=C/CCC1(C)C=Cc2c(cc(C)c(C(=O)O)c2O)O1` (racemic) [1:1 mixture of (+)-DCA with (−)-DCA, (E)-2-(4,8-dimethylnona-3,7-dien-1-yl)-5-hydroxy-2,7-dimethyl-2H-chromene-6-carboxylic acid], for which, in the series on Human Coronavirus OC43 (listed as 1:1 mix of both), the “efficacy against HCoV OC43” value is on record as “Efficacy was seen”. Moreover, the CC50 (commonly the concentration at which the toxic effect on the cells reaches its halfway point) at 5 days was found to be 8.2 µg/mL in series [1] and 5.9 µg/mL in series [2]. In addition, the entries for the “CC50 (50% cell viability)” value with 16HBE cells and with H292 cells were 8.225 µg/mL and 5.938 µg/mL, respectively.
In the case of `CCC(CC)COC(=O)[C@H](C)N[P@](=O)(OC[C@H]1O[C@@](C#N)(c2ccc3c(N)ncnn23)[C@H](O)[C@@H]1O)Oc1ccccc1` [Remdesivir, reference compound], the EC50 (usually the concentration giving half of the maximal effect) was 0.029 µg/mL with Human Coronavirus OC43 (Betacoronavirus 1, OC43, NCI-H292, 120 h, HCoV OC43, H292 cells, 5 days, read-out: EC50 (50% viral inhibition)); 0.01 to 0.1 µM in the series on Human Coronavirus OC43 (Betacoronavirus 1, OC43, NCI-H292, HCoV OC43, read-out: EC50); 0.01 to 0.1 µM in the series with Human Coronavirus 229E (16HBE, read-out: EC50); 0.023 µg/mL in the series on Human Coronavirus 229E (120 h, 16HBE cells, 5 days, read-out: EC50 (50% viral inhibition)).
As to `CCCCCc1cc2c(c(O)c1C(=O)O)C=CC(C)(CCC=C(C)C)O2` (centres unmarked) [CBCA, 5-hydroxy-2-methyl-2-(4-methylpent-3-enyl)-7-pentylchromene-6-carboxylic acid], in [3], the “plasma Cmax” value is “approx. 4 μg/mL” and the side effects entry is reported as “without any major side effects”.
On to `CC(C)=CCC/C(C)=C/CCC1(C)C=Cc2c(cc(C)c(C(=O)O)c2O)O1` (stereo in doubt) [(−)-DCA, (−)-(2S)-2-[(3E)-4,8-dimethylnona-3,7-dienyl]-5-hydroxy-2,7-dimethylchromene-6-carboxylic acid], for which, in the series with Human Coronavirus OC43 (Betacoronavirus 1, OC43, NCI-H292, 120 h, read-out: EC50 (50% viral inhibition), HCoV OC43, H292 cells, 5 days), the EC50 amounted to 4.39 µg/mL. In the series on Human Coronavirus OC43, the “efficacy against HCoV OC43” value is “Efficacy was seen”. The “EC50 (50% viral inhibition)” value in the series with Human Coronavirus OC43 (HCoV OC43, H292 cells, 5 days) stood at 4.382 µg/mL (≈ 11.8 µM). Further, the CC50 at 5 days was determined as 35.7 µg/mL (≈ 96.4 µM) in [1] and 15.1 µg/mL (≈ 40.8 µM) in series [2].
Regarding `CC(C)=CCC[C@]1(C)[C@@H]2CC[C@]3(C)Oc4cc(C)c(C(=O)O)c(O)c4[C@H]1[C@H]23` [Rhododaurichromanic acid B], the anti-HIV activity entry in the series with HIV (in vitro) is reported as “no anti-HIV activity”.
For the compound `CC(C)=CCC/C(C)=C/CC[C@@]1(C)C=Cc2c(cc(C)c(C(=O)O)c2O)O1` [(+)-DCA, (S,E)-2-(4,8-dimethylnona-3,7-dien-1-yl)-5-hydroxy-2,7-dimethyl-2H-chromene-6-carboxylic acid], the “anti-HIV activity EC50” value in the series on HIV (acutely infected H9 cells) is 0.00567 µg/mL. Besides, the “efficacy against HCoV OC43” value in the series with Human Coronavirus OC43 is “Efficacy was seen”. The CC50 at 5 days in [1] came out at 20.7 µg/mL (≈ 55.9 µM); in series [2], 9.27 µg/mL (≈ 25 µM). The “inhibition of uninfected H9 growth EC50” value in the series on uninfected H9 cells was 21.1 µg/mL.
As to `CC(C)=CCC[C@@]1(C)[C@@H]2CC[C@]3(C)Oc4cc(C)c(C(=O)O)c(O)c4[C@H]1[C@H]23` [Rhododaurichromanic acid A], the “anti-HIV activity EC50” value with HIV (in vitro) was 0.37 µg/mL.
